Test: Phase solubility analysis (Higuchi-Connors plot) with HPβCD
Assay type: physicochemical
Details: different concentrations of HPβCD in isotonic saline solutions
From the text: In an attempt to solubilize the peptide, the effect of cyclodextrins was investigated. In particular, HPβCD, a cyclodextrin presented as preferable in most of the literature described above and used in composition for inhalation by Magalhães et al., was selected for testing. […] The skilled person is familiar with Higuchi-Connors plots and how to obtain them, as described, e.g., in Higuchi T. and Connors, Advances in Analytical Chemistry and Instrumentation, 1965, 177-212.

- solubilising effect of HPβCD on AT1-7: substantially no solubilising effect
Compound: CC[C@H](C)[C@H](NC(=O)[C@H](Cc1ccc(O)cc1)NC(=O)[C@@H](NC(=O)[C@H](CCCNC(=N)N)NC(=O)[C@@H](N)CC(=O)O)C(C)C)C(=O)N[C@@H](Cc1c[nH]cn1)C(=O)N1CCC[C@H]1C(=O)O [AT1-7, Asp-Arg-Val-Tyr-Ile-His-Pro]
